Like-named read-outs stand apart in the source and are kept apart here.
Columns and labels:
[1] = Acute toxicity, intravenous (once), ddY mice; assay type: in vivo; conditions: mouse, in vivo, formulated per Preparation Example
Excerpt: In Table 7 are shown acute toxicity values (LD50, mg/kg) in ddY mice in the case of intravenously administering (once) each of the compounds of this invention in the form of preparations shown in the Preparation Examples shown in Table 7.

[2] = system: P-388 leukemia cells; assay: Antitumor activity: P-388 leukemia cells inoculated intraperitoneally, drug administered intravenously, BDF1 mice; assay type: in vivo; conditions: Mus musculus, P388, iv, read-out: T/C (%) of MST; for response vs control in vivo at 80 mg/kg: dose f: 80 mg/kg × 3, i.v. on days 1, 5 and 9; for response vs control in vivo at 60 mg/kg: dose e: 60 mg/kg × 3, i.v. on days 1, 5 and 9
In short: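 Drug dosing was intravenous on the first, fifth and ninth days after intraperitoneal inoculation of P-388 leukemia cells (1×10^6 per mouse) into BDF1 mice. Vehicles were physiological saline alone, or saline with small amounts of sodium carboxymethyl cellulose or Tween-80.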

[3] = dose c: 40 mg/kg × 3, i.v. on days 1, 5 and 9, BDF1 mice, P-388 i.p.

Compound	LD50 ([1]; iv) [mg/kg]	response vs control in vivo at 60 mg/kg ([2]; BDF1 mice, P-388 i.p.) [%]	further results
COC1C(O)C(C)OC(OC2C(Oc3cccc4c(OC(=O)C(C)C)c5c(=O)oc6ccc(C)c7c(=O)oc(c34)c5c67)OC(C)C3OC(C)(C)OC32)C1O (centres unmarked) [compound 222]	≥ 80	–	response vs control in vivo at 40 mg/kg [2, 3]: 144%; response vs control in vivo at 80 mg/kg ([2]; BDF1 mice, P-388 i.p.): 162%
COC1C(O)C(C)OC(OC2C(Oc3cccc4c(OC(=O)CCC(=O)c5ccccc5)c5c(=O)oc6ccc(C)c7c(=O)oc(c34)c5c67)OC(C)C3OC(C)(C)OC32)C1O (centres unmarked) [compound 224, 6-O-(3-benzoylpropionyl)-3',4'-O-isopropylidene-chartreusin]	≥ 60	–	response vs control in vivo at 50 mg/kg ([2]; dose d: 50 mg/kg × 3, i.v. on days 1, 5 and 9, BDF1 mice, P-388 i.p.): 148%
COC1C(O)C(C)OC(OC2C(Oc3cccc4c(OC(=O)COc5ccc(F)cc5)c5c(=O)oc6ccc(C)c7c(=O)oc(c34)c5c67)OC(C)C3OC(C)(C)OC32)C1O (centres unmarked) [compound 225]	≥ 60	148	–
CCCC(=O)Oc1c2cccc(OC3OC(C)C4OC(c5ccco5)OC4C3OC3OC(C)C(O)C(OC)C3O)c2c2oc(=O)c3c(C)ccc4oc(=O)c1c2c43 (centres unmarked) [compound 228]	≥ 60	140	–
COC1C(O)C(C)OC(OC2C(Oc3cccc4c(OC(=O)c5ccc(Br)cc5)c5c(=O)oc6ccc(C)c7c(=O)oc(c34)c5c67)OC(C)C3OC(c4ccccc4)OC32)C1O (centres unmarked) [compound 229]	≥ 80	167	–
C/C=C(\C)C(=O)Oc1c2cccc(OC3OC(C)C4OC(c5ccccc5)OC4C3OC3OC(C)C(O)C(OC)C3O)c2c2oc(=O)c3c(C)ccc4oc(=O)c1c2c43 (centres unmarked) [compound 231]	–	–	LD50 [1]: ≥ 40 mg/kg; response vs control in vivo at 20 mg/kg [2]: 150%
COC1C(O)C(C)OC(OC2C(Oc3cccc4c(OC(=O)C5CC5)c5c(=O)oc6ccc(C)c7c(=O)oc(c34)c5c67)OC(C)C3OC(c4ccccc4)OC32)C1O (centres unmarked) [compound 232]	≥ 40	–	response vs control in vivo at 10 mg/kg ([2]; dose a: 10 mg/kg × 3, i.v. on days 1, 5 and 9, BDF1 mice, P-388 i.p.): 146%
COC1C(O)C(C)OC(OC2C(Oc3cccc4c(OC(=O)C5CC5)c5c(=O)oc6ccc(C)c7c(=O)oc(c34)c5c67)OC(C)C3OC(CCc4ccccc4)OC32)C1O (centres unmarked) [compound 233]	≥ 60	165	–
C/C=C(\C)C(=O)Oc1c2cccc(OC3OC(C)C4OC(c5ccc(OC)cc5)OC4C3OC3OC(C)C(O)C(OC)C3O)c2c2oc(=O)c3c(C)ccc4oc(=O)c1c2c43 (centres unmarked) [compound 234]	–	–	LD50 [1]: ≥ 40 mg/kg; response vs control in vivo at 40 mg/kg [2]: 135%
COC1C(O)C(C)OC(OC2C(Oc3cccc4c(OC(=O)CCCCCBr)c5c(=O)oc6ccc(C)c7c(=O)oc(c34)c5c67)OC(C)C3OC(C)(C)OC32)C1O (centres unmarked) [compound 235]	≥ 60	–	response vs control in vivo at 40 mg/kg [2, 3]: 145%
COC1C(O)C(C)OC(OC2C(Oc3cccc4c(OC(=O)CC(C)CC(C)(C)C)c5c(=O)oc6ccc(C)c7c(=O)oc(c34)c5c67)OC(C)C3OC(C)(C)OC32)C1O (centres unmarked) [compound 237]	≥ 60	242	–
CC=CC=CC(=O)Oc1c2cccc(OC3OC(C)C4OC(C)(C)OC4C3OC3OC(C)C(O)C(OC)C3O)c2c2oc(=O)c3c(C)ccc4oc(=O)c1c2c43 (centres unmarked) [compound 238]	≥ 80	–	response vs control in vivo at 40 mg/kg [2, 3]: 130%; response vs control in vivo at 80 mg/kg ([2]; BDF1 mice, P-388 i.p.): 192%
CCCCC(CC)C(=O)Oc1c2cccc(OC3OC(C)C4OC(C)(C)OC4C3OC3OC(C)C(O)C(OC)C3O)c2c2oc(=O)c3c(C)ccc4oc(=O)c1c2c43 (centres unmarked) [compound 239]	≥ 60	153	–
CCC(C)C(=O)Oc1c2cccc(OC3OC(C)C4OC5(CCCCC5)OC4C3OC3OC(C)C(O)C(OC)C3O)c2c2oc(=O)c3c(C)ccc4oc(=O)c1c2c43 (centres unmarked) [compound 241]	≥ 80	–	response vs control in vivo at 80 mg/kg ([2]; BDF1 mice, P-388 i.p.): 135%
COC1C(O)C(C)OC(OC2C(Oc3cccc4c(OC(=O)c5ccccc5)c5c(=O)oc6ccc(C)c7c(=O)oc(c34)c5c67)OC(C)C3OC(C)(C)OC32)C1O (centres unmarked) [compound 242]	≥ 40	–	response vs control in vivo at 20 mg/kg ([2]; dose b: 20 mg/kg × 3, i.v. on days 1, 5 and 9, BDF1 mice, P-388 i.p.): 137%

Reference: patent US4760136A, “Chartreusin derivatives and salts thereof” (Ishihara Sangyo Kaisha, Ltd., priority 1984, dated 1988)
